Test results: the NIST ThermoML archive (doi:10.1021/acs.jced.5b00936)

What was measured:
[1] = 100 kPa, Liquid; for viscosity: Concentric cylinders viscometry; for mass density: Vibrating tube method
[2] = refractive index (Na D-line) (dimensionless); conditions: 100 kPa, Liquid, Standard Abbe refractometry

C[N+](C)(C)CCO.O=S(=O)([O-])CC(O)CNC(CO)(CO)CO (stereo not given)
Conditions	mass density, [1] [kg/m3]	refractive index, [2]	viscosity, [1] [mPa·s]
323.15 K	–	1.50991	–
328.15 K	1316.4	1.50884	56778
333.15 K	1313.3	1.50769	34168
338.15 K	1310.3	1.50654	21501
343.15 K	1307.4	1.50552	14013
348.15 K	1304.6	1.5044	9355.9
353.15 K	1301.8	1.50327	6385.4

C[N+](C)(C)CCO.O=S(=O)([O-])CCN(CCO)CCO
Conditions	mass density, [1] [kg/m3]	refractive index, [2]	viscosity, [1] [mPa·s]
293.15 K	1248	–	33236
298.15 K	1244.8	1.50047	20518
303.15 K	1241.8	1.49937	13056
308.15 K	1238.9	1.49826	8631.6
313.15 K	1236.1	1.49716	5848.4
318.15 K	1233.3	1.49602	4045.8
323.15 K	1230.5	1.49476	2861
328.15 K	1227.7	1.49317	2061.7
333.15 K	1224.9	1.49148	1526.8
338.15 K	1222.2	1.49052	1136.6
343.15 K	1219.5	1.48921	858.1
348.15 K	1216.8	1.48749	658.8
353.15 K	1214.1	1.48633	512.7

CCCC[N+](CCCC)(CCCC)CCCC.O=S(=O)([O-])CC(O)CN1CCOCC1 [tetrabutylammonium 2-hydroxy-3-morpholinopropanesulfonate]
Conditions	mass density, [1] [kg/m3]	refractive index, [2]	viscosity, [1] [mPa·s]
308.15 K	1051.2	1.48328	34148
313.15 K	1048.2	1.48188	18392
318.15 K	1045.3	1.48038	10603
323.15 K	1042.3	1.47873	6381.1
328.15 K	1039.4	1.47693	3976.3
333.15 K	1035.8	1.47525	2571.7
338.15 K	1033.1	1.47377	1702.9
343.15 K	1030.4	1.47242	1158.3
348.15 K	1027.6	1.47111	807.1
353.15 K	1024.7	1.46984	574.9

CCCC[P+](CCCC)(CCCC)CCCC.O=S(=O)([O-])CCN(CCO)CCO
Conditions	mass density, [1] [kg/m3]	refractive index, [2]	viscosity, [1] [mPa·s]
288.15 K	1066.8	1.49778	41313
293.15 K	1063.9	1.4964	24078
298.15 K	1061	1.49502	14082
303.15 K	1058.1	1.49365	8504.9
308.15 K	1055.3	1.49333	5315.8
313.15 K	1052.4	1.49198	3370.9
318.15 K	1049.6	1.49061	2199.4
323.15 K	1046.8	1.48921	1356.9
328.15 K	1044	1.48744	871
333.15 K	1041.2	1.4859	611.8
338.15 K	1038.4	1.48437	458.9
343.15 K	1035.6	1.48287	352.3
348.15 K	1032.8	1.48142	273.6
353.15 K	1030.1	1.48003	214.5

CCCC[P+](CCCC)(CCCC)CCCC.O=S(=O)([O-])CC(O)CN1CCOCC1 [tetrabutylphosphonium 2-hydroxy-3-morpholinopropanesulfonate]
Conditions	mass density, [1] [kg/m3]	refractive index, [2]	viscosity, [1] [mPa·s]
288.15 K	1062.9	1.4959	22869
293.15 K	1059.9	1.49447	12430
298.15 K	1056.8	1.49299	7312.9
303.15 K	1053.7	1.49152	4493.6
308.15 K	1050.5	1.48999	2859.8
313.15 K	1047.5	1.48836	1889.2
318.15 K	1044.4	1.4866	1277
323.15 K	1041.3	1.48573	886.7
328.15 K	1038.2	1.4841	630.4
333.15 K	1035.1	1.48239	457.8
338.15 K	1032.1	1.48069	339.2
343.15 K	1029.1	1.47908	255.6
348.15 K	1026.2	1.47761	195.8
353.15 K	–	1.47622	152.3
